Laboratory results taken from ChEMBL document CHEMBL3576765, “Rubrumazines A-C, Indolediketopiperazines of the Isoechinulin Class from Eurotium rubrum MA-150, a Fungus Obtained from Marine Mangrove-Derived Rhizospheric Soil” (J Nat Prod, 2015).
≈ marks a conversion by molar mass, not a printed value.

Legend:
[1] = (§1) Toxicity in brine shrimp assessed as mortality; format: organism-based; conditions: artemia salina, in vivo; read-out: LD50 (the source's name)
Artemia salina = experiment: as §1; format: organism-based; conditions: in vivo
Vibrio alginolyticus = experiment: Antibacterial activity against Vibrio alginolyticus by well diffusion method; format: functional

SMILES | LC50 [1] | also measured
C=CC(C)(C)c1[nH]c2c(C[C@H](O)C(C)(C)O)cccc2c1/C=C1\NC(=O)[C@H](C)NC1=O | 2.4 µM | –
C=CC(C)(C)c1[nH]c2ccc(CC=C(C)C)cc2c1/C=C1\NC(=O)[C@H](C)NC1=O [ISOECHINULIN A] | 11.7 µM | –
C=CC(C)(C)c1[nH]c2c(CC=C(C)C)cc(CC=C(C)C)cc2c1C[C@@H]1NC(=O)[C@H](C)NC1=O [ECHINULIN] | – | LD50 (Artemia salina): Not Active
C=CC(C)(C)c1[nH]c2c(C[C@H](O)C(C)(C)O)cccc2c1C[C@@H]1NC(=O)[C@H](C)NC1=O | 16.5 µM | –
COc1cc2c(c(OC)c1OC)-c1ccc(OC)c(=O)cc1[C@@H](NC(C)=O)CC2 [COLCHICINE] | 19.4 µM | –
C=CC(C)(C)c1[nH]c2ccc(CC=C(C)C)cc2c1C[C@@H]1NC(=O)[C@H](C)NC1=O [TARDIOXOPIPERAZINE A] | – | LD50 (Artemia salina): Not Active
C=CC(C)(C)c1[nH]c2c(CC=C(C)C)cc(CC=C(C)C)c(CC=C(C)C)c2c1/C=C1\NC(=O)[C@H](C)NC1=O | 3.5 µM | –
C=CC(C)(C)c1[nH]c2c(C[C@H](O)C(C)(C)OC)cccc2c1/C=C1\NC(=O)[C@H](C)NC1=O | 29.8 µM | –
C=CC(C)(C)c1[nH]c2ccccc2c1/C=C1\NC(=O)C(=O)NC1=O | 3.9 µM | –
C=CC(C)(C)c1[nH]c2ccccc2c1/C=C1\NC(=O)C2(C=C3c4cc(O)cc(O)c4C(=O)c4c(O)cc(C)c(c43)O2)NC1=O (stereo unspecified) | 16.7 µM | –
O=C(N[C@H](CO)[C@H](O)c1ccc([N+](=O)[O-])cc1)C(Cl)Cl [CHLORAMPHENICOL] | – | MIC (Vibrio alginolyticus): 4 µg/mL (≈ 12.4 µM)
C=CC(C)(C)c1[nH]c2ccccc2c1/C=C1\NC(=O)C2(C=C3c4cc(O)cc(OC)c4C(=O)c4c(O)cc(C)c(c43)O2)NC1=O (stereo unspecified) | 9.8 µM | –
C[C@@H]1NC(=O)[C@H](Cc2c[nH]c3ccccc23)NC1=O | 25.5 µM | –
C=CC(C)(C)c1[nH]c2ccc(CC=C(C)C)c(CC=C(C)C)c2c1C[C@@H]1NC(=O)[C@H](C)NC1=O [VARIECOLORIN L] | – | LD50 (Artemia salina): Not Active
C=CC(C)(C)c1[nH]c2ccc(CC(=O)C(C)C)cc2c1/C=C1\NC(=O)[C@H](C)NC1=O [VARIECOLORIN E] | 24 µM | –
C=CC(C)(C)c1[nH]c2c(CC=C(C)C)cccc2c1/C=C1\NC(=O)[C@H](C)NC1=O [VARIECOLORIN G] | 22 µM | –
